The values below come from patent publication US20250205344A1, “2,4-DIOXOTETRAHYDROPYRIMIDINYL DERATIVES AS DEGRONS IN PROTACS” (GLAXOSMITHKLINE INTELLECTUAL PROPERTY DEVELOPMENT LIMITED, priority 2022, published 2025).

Counter-ions that a name gives are not always drawn.

The target of this test is T1, Androgen Receptor (Homo sapiens, UniProt P10275, T878A).
T1 construct: the AR gene was modified, using CRISPR/Cas9 editing, so the expressed AR protein included an 11 amino acid HiBiT tag; endogenous in cells; host or cells: clonal LnCaP-derived line, AR gene edited by CRISPR/Cas9
T1 sequence (P10275 whole entry T878A): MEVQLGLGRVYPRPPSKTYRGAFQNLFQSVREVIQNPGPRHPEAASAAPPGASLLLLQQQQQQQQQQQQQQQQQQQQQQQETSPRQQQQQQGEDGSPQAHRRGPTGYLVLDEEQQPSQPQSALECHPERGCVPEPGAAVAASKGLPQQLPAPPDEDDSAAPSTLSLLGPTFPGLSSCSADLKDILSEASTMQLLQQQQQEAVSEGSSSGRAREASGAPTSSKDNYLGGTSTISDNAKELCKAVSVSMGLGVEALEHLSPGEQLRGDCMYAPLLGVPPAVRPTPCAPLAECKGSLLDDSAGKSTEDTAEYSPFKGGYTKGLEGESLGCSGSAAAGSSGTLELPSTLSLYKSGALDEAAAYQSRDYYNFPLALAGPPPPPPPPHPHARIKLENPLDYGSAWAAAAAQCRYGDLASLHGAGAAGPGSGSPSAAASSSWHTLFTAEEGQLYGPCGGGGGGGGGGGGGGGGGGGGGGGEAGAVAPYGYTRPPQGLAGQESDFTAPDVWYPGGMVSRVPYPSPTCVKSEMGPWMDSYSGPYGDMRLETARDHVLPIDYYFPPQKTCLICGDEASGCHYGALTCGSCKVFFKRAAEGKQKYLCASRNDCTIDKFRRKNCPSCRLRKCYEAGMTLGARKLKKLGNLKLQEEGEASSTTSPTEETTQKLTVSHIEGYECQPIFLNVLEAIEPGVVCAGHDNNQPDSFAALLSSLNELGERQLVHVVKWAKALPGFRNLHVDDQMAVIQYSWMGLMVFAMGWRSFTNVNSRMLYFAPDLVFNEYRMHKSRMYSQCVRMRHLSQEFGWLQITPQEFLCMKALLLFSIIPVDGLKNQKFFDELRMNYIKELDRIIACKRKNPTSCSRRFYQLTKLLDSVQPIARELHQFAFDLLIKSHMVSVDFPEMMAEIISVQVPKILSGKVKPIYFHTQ
T1 sequence (Q96SW2 whole entry partner): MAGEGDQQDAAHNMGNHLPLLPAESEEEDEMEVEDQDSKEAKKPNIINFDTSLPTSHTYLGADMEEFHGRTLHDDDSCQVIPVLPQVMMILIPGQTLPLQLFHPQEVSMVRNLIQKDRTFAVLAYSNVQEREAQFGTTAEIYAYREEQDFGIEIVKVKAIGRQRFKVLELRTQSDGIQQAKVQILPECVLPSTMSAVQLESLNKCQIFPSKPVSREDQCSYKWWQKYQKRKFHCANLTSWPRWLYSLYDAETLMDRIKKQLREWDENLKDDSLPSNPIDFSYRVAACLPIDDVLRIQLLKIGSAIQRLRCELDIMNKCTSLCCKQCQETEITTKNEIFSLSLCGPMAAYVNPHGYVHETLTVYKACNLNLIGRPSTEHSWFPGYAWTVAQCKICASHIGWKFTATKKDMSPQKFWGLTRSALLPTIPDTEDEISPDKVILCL
T1 sequence (Q16531 whole entry partner): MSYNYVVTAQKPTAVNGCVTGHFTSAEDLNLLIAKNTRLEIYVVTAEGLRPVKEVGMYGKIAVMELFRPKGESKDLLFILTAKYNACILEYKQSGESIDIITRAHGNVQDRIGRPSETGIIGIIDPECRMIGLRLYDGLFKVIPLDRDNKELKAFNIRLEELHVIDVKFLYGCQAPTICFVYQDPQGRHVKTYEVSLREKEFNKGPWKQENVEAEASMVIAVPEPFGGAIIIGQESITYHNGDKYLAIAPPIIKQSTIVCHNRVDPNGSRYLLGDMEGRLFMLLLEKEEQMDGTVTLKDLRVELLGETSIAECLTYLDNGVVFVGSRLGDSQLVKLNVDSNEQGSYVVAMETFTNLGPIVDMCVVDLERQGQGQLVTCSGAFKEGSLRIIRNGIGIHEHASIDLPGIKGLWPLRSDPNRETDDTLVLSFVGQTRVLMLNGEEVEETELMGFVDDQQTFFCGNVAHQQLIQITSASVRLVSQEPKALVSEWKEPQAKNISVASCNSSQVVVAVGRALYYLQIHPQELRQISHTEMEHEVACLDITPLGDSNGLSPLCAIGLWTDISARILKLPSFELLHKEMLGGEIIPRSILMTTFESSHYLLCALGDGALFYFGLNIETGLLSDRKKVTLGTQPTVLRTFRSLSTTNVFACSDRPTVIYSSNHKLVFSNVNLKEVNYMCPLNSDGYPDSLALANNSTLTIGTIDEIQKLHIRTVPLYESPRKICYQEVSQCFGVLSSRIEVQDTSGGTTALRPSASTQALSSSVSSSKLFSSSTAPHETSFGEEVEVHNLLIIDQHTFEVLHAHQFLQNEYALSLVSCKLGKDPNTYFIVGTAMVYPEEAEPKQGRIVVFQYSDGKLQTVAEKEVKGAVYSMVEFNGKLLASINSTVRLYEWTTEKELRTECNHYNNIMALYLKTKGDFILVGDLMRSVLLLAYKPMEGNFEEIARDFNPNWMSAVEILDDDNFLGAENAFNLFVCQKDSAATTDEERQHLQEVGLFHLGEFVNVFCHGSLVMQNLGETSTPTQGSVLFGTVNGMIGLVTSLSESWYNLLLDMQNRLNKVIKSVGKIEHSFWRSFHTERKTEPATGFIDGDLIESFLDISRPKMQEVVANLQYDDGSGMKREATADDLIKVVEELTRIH
Briefly: Androgen Receptor Degradation Assay (Nano-Glo HiBiT). Type of test: cell-based. The settings on record: 18 h, HiBiT-tagged AR in human LnCaP cells; for Dmax: LNCaP, read-out: mean asymptote max. In a few lines: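 LnCaP cells with CRISPR-knocked-in N-terminal HiBiT-tagged AR (10,000/well) treated 18 h at 37 °C with PROTACs over 11 threefold concentrations; lytic HiBiT luminescence normalised to DMSO (0%) and cell-free (100%) controls. Relative DC50 = 4-parameter fit inflection; absolute DC50 = 50% degradation interpolation; Dmax = maximum observed degradation.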
(In general: The HiBiT peptide binds its large partner to form an active luciferase.)

As for `C[C@@H]1CN(c2ccc(C#N)c(Cl)c2)[C@@H](C)CN1C(=O)c1ccc(OCCCCCN2CCC(n3ncc4c(N5CCC(=O)NC5=O)cncc43)CC2)nc1` [EAR164, 2-Chloro-4-((2S,5R)-4-(6-((5-(4-(4-(2,4-dioxotetrahydropyrimidin-1(2H)-yl)-1H-pyrazolo[3,4-c]pyridin-1-yl)piperidin-1-yl)pentyl)oxy)nicotinoyl)-2,5-dimethylpiperazin-1-yl)benzonitrile], the Dmax was at least 50%. As to `N#Cc1ccc(O[C@H]2CC[C@H](NC(=O)c3ccc(N4CC5CC(C4)C5CN4CCC(n5ncc6c(N7CCC(=O)NC7=O)cccc65)CC4)nn3)CC2)cc1Cl` (stereo partly drawn) [EAR228, N-((1r,4r)-4-(3-chloro-4-cyanophenoxy)cyclohexyl)-6-(6-((4-(4-(2,4-dioxotetrahydropyrimidin-1(2H)-yl)-1H-indazol-1-yl)piperidin-1-yl)methyl)-3-azabicyclo[3.1.1]heptan-3-yl)pyridazine-3-carboxamide], the Dmax was at least 50%. Regarding `N#Cc1ccc(O[C@H]2CC[C@H](NC(=O)c3cnc(N4CCC(CN5CCC(n6ncc7c(N8CCC(=O)NC8=O)cc(F)cc76)CC5)CC4)cn3)CC2)cc1Cl` [EAR217, N-((1r,4r)-4-(3-chloro-4-cyanophenoxy)cyclohexyl)-5-(4-((4-(4-(2,4-dioxotetrahydropyrimidin-1(2H)-yl)-6-fluoro-1H-indazol-1-yl)piperidin-1-yl)methyl)piperidin-1-yl)pyrazine-2-carboxamide hydrochloride], the Dmax was at least 50%. For the compound `C[C@@H]1CN(C(=O)Nc2ccc(N3CCC(CN4CCC(n5ncc6c(N7CCC(=O)NC7=O)cccc65)CC4)CC3)nc2)[C@@H](C)CN1c1ccc(C#N)c(Cl)c1` [EAR138, (2S,5R)-4-(3-Chloro-4-cyanophenyl)-N-(6-(4-((4-(4-(2,4-dioxotetrahydropyrimidin-1(2H)-yl)-1H-indazol-1-yl)piperidin-1-yl)methyl)piperidin-1-yl)pyridin-3-yl)-2,5-dimethylpiperazine-1-carboxamide, formic acid salt], the Dmax is at least 50%. Regarding `C[C@@H]1CN(C(=O)Nc2ccc(OCCCCN3CCC(n4ccc5c(N6CCC(=O)NC6=O)cccc54)CC3)nc2)[C@@H](C)CN1c1ccc(C#N)c(Cl)c1` [EAR121, (2S,5R)-4-(3-chloro-4-cyanophenyl)-N-(6-(4-(4-(4-(2,4-dioxotetrahydropyrimidin-1(2H)-yl)-1H-indol-1-yl)piperidin-1-yl)butoxy)pyridin-3-yl)-2,5-dimethylpiperazine-1-carboxamide], the Dmax is at least 50%. Turning to `CC1(C)[C@H](NC(=O)c2ncc(N3CCC(CN4CCC(n5ncc6c(N7CCC(=O)NC7=O)cccc65)CC4)CC3)cn2)C(C)(C)[C@H]1Oc1cnc(C#N)c(Cl)c1` [EAR268, N-((1r,3r)-3-((5-Chloro-6-cyanopyridin-3-yl)oxy)-2,2,4,4-tetramethylcyclobutyl)-5-(4-((4-(4-(2,4-dioxotetrahydropyrimidin-1(2H)-yl)-1H-indazol-1-yl)piperidin-1-yl)methyl)piperidin-1-yl)pyrimidine-2-carboxamide], the “mean relative pDC50” value was 5.54 and the Dmax was at least 50%. As for `N#Cc1ccc(O[C@H]2CC[C@H](NC(=O)c3ccc(N4CCC(CN5CCC(n6ccc7c(N8CCC(=O)NC8=O)cc(C(F)(F)F)cc76)CC5)CC4)nn3)CC2)cc1Cl` [EAR176, N-((1r,4r)-4-(3-chloro-4-cyanophenoxy)cyclohexyl)-6-(4-((4-(4-(2,4-dioxotetrahydropyrimidin-1(2H)-yl)-6-(trifluoromethyl)-1H-indol-1-yl)piperidin-1-yl)methyl)piperidin-1-yl)pyridazine-3-carboxamide], the Dmax is at least 50%. Still for that read-out and setting: to `N#Cc1ccc(O[C@H]2CC[C@H](NC(=O)c3ccc(O[C@H]4CCN(C(=O)CN5CCC(n6ccc7c(N8CCC(=O)NC8=O)cccc76)CC5)C4)nn3)CC2)cc1Cl` [EAR188, N-((1r,4S)-4-(3-Chloro-4-cyanophenoxy)cyclohexyl)-6-(((S)-1-(2-(4-(4-(2,4-dioxotetrahydropyrimidin-1(2H)-yl)-1H-indol-1-yl)piperidin-1-yl)acetyl)pyrrolidin-3-yl)oxy)pyridazine-3-carboxamide] belongs at least 50%.
